How the values were obtained:
Human epidermal cells = test: Hyaluronic acid production in human epidermal cells; assay type: cell-based; conditions: 48 hours, relative to control; sample 10 μg/mL
Description: Human epidermal cells were cultured and the medium was replaced by one containing the ginseng berry extract of Example 1 (1 μg/mL, 10 μg/mL and 100 μg/mL), the ginseng berry saponin concentrate of Example 2 (10 μg/mL), the ginseng root extract of Comparative Example 1 (10 μg/mL) or ginsenosides Rg1, Rg2, Rh1 or Re (10 μg/mL) or a general medium (control). The cells were then cultured for 48 hours under the same conditions. Then, the quantity of hyaluronic acid in the groups was compared using a hyaluronic acid measurement kit. The result is given as relative value with respect to the control group in Table 16 and FIG. 20.

TNF-α = test: LPS-induced inflammatory factor TNF-α in mouse blood; assay type: in vivo; conditions: mouse blood about 12 h after LPS, intra-abdominal
Description: (§1) Based on the experimental result in the cell level, the effect of controlling vascular inflammation of the ginseng berry extract was tested in an animal model. Mice were grouped into a non-treated group, an LPS-induced group, a group treated with the ginseng berry extract of Example 1 (50 μg/mL and 100 μg/mL), a group treated with the ginseng berry saponin concentrate of Example 2 (100 μg/mL), a group treated with the ginseng root extract of Comparative Example 1 (100 μg/mL) and groups treated with ginsenosides Rg1, Rg2, Rh1 or Re (10 μg/mL and 20 μg/mL), with 5 mice per each group.
(§2) 100 mg of each test substance per kg body weight of mouse, diluted in saline solution (0.9% NaCl), was intra-abdominally injected three times from day 1 through day 3. 2 hours after the injection on day 3, LPS diluted in saline solution (1 μg/mL) was injected intra-abdominally at a concentration of about 4 mg per kg body weight of mouse to induce inflammation by inflammatory factors (PGE2, TNF-α and IL1-β). After approximately 12 hours, the abdomen of the mouse was cut open, and blood was taken from the artery of the heart and stored at […]. The blood was kept at room temperature for 30 minutes and, after centrifuge at 4° C. and 3,000 rpm for 10 minutes, the supernatant was kept at −20° C. Then, the inflammatory factors PGE2, TNF-α and IL1-β were identified by western blotting. Measurement was made twice and the mean value was calculated. The result is shown in Table 4 and FIG. 9 (PGE2 (ng/mL)), Table 5 and FIG. 10 (TNF-α (ng/mL)), and Table 6 and FIG. 11 (IL1-β (pg/mL)).

Cyclooxygenase-2 (COX-2) = test: Inhibition of UV-induced COX-2 biosynthesis in human fibroblasts (western blotting); assay type: cell-based; conditions: UVA 15 J/cm^2, 2nd day, relative to UV control; sample 10 μg/mL
Description: Human fibroblasts were cultured on a 12-well plate incubator to a concentration of 10^5 cells/well. Then, after irradiating UVA at 15 J/cm^2, the medium was replaced by one including the ginseng berry extract of Example 1 (0.1 μg/mL, 1 μg/mL and 10 μg/mL), the ginseng berry saponin concentrate of Example 2 (10 μg/mL), the ginseng root extract of Comparative Example 1 (0.1 μg/mL, 1 μg/mL and 10 μg/mL) or ginsenosides Rg1, Rg2, Rh1 or Re (10 μg/mL). On the 2nd day of culturing, the cells were harvested and the quantity of produced COX-2 was analyzed using western blotting. The result was calculated as a relative value with respect to the control group, which was irradiated with UV without treating with a test substance, using a densitometer.

[1] = tested on: melanocytes (MeI-Ab cells); test: Inhibition of melanin generation in mouse melanocytes; assay type: cell-based, C57BL/6 mouse; conditions: added for 3 consecutive days; sample 10 μg/mL
Description: Inhibition of melanin generation in mouse melanocytes was evaluated in order to confirm the effect of the ginseng berry extract of Example 1 of inhibiting melanin generation.
First, melanocytes (MeI-Ab cells) derived from C57BL/6 mouse [Dooley, T. P. et al, Skin Pharmacol., 7, pp. 188-200] were cultured in Dulbecco's modified Eagle's medium (DMEM) containing 10% FBS, 100 nM 2-O-tetradecanoylphorbol-13-acetate and 1 nM cholera toxin under the condition of 37° C., 5% CO2. The cultured MeI-Ab cells were separated using 0.25% trypsin-EDTA, and cultured on a 24-well plate to a concentration of 10^5 cells/well. Starting from day 2, the ginseng berry extract of Example 1 (1 μg/mL, 10 μg/mL and 100 μg/mL), the ginseng berry saponin concentrate of Example 2 (10 μg/mL), the ginseng root extract of Comparative Example 1 (10 μg/mL) or ginsenosides Rg1, Rg2, Rh1 or Re (10 μg/mL) was added for 3 consecutive days. Hydroquinone (10 μg/mL) was used as a positive control substance. Then, after removing the medium and washing with PBS, the cells were dissolved with 1 N sodium hydroxide. Absorbance was measured at 400 nm, and melanin generation inhibition ratio was calculated by Equation 3.

IL1-β = test: LPS-induced inflammatory factor IL1-β in mouse blood; assay type: in vivo; conditions: mouse blood about 12 h after LPS, intra-abdominal
Description: as §1, §2

[2] = tested on: Macrophages (Raw 264.7 cells); test: Inhibition of LPS-induced NO generation in macrophages (Griess reaction); assay type: cell-based; conditions: LPS 1 μg/mL
Description: Effect of inhibiting LPS-induced NO generation in macrophages was tested in order to confirm the effect of inhibiting vascular inflammation of the ginseng berry extract.
Macrophages (Raw 264.7 cells) were cultured in a medium containing 10% serum under the condition of 5% CO2. After culturing on a 96-well plate incubator to a concentration of 2×10^5 cells/well and stimulating with LPS (1 μg/mL), the cells were treated with the ginseng berry extract of Example 1 (50 μg/mL and 100 μg/mL), the ginseng berry saponin concentrate of Example 2 (100 μg/mL), the ginseng root extract of Comparative Example 1 (100 μg/mL) or ginsenosides Rg1, Rg2, Rh1 or Re (10 μg/mL and 20 μg/mL), respectively. After keeping the treated cells at 37° C. for 1 hour, the degree of NO generation was measured to compare the effect of inhibiting LPS-induced NO generation of the test substances. NO generation (μM) was measured using the Griess reaction [Minghetti, L. et al., 1991, Glia 19. 152-160]. Measurement was made twice and the mean value was calculated.

Row | Compound | Hyaluronic acid production (%) (Human epidermal cells) | TNF-α, Mean ± standard deviation (TNF-α; group (10 μg/mL)) [ng/mL] | TNF-α, Result 1 (TNF-α; group (10 μg/mL)) [ng/mL] | TNF-α, Result 2 (TNF-α; group (10 μg/mL)) [ng/mL] | TNF-α, Mean ± standard deviation (TNF-α; group (20 μg/mL)) [ng/mL] | TNF-α, Result 1 (TNF-α; group (20 μg/mL)) [ng/mL] | TNF-α, Result 2 (TNF-α; group (20 μg/mL)) [ng/mL] | COX-2 biosynthesis (%) (Cyclooxygenase-2 (COX-2)) | Melanin generation inhibition ratio (%) [1] [%] | IL1-β, Mean ± standard deviation (IL1-β; group (10 μg/mL)) [pg/mL] | IL1-β, Result 1 (IL1-β; group (10 μg/mL)) [pg/mL] | IL1-β, Result 2 (IL1-β; group (10 μg/mL)) [pg/mL] | IL1-β, Mean ± standard deviation (IL1-β; group (20 μg/mL)) [pg/mL] | IL1-β, Result 1 (IL1-β; group (20 μg/mL)) [pg/mL] | IL1-β, Result 2 (IL1-β; group (20 μg/mL)) [pg/mL] | NO generation relative to negative control (%) ([2]; sample 10 μg/mL) | NO generation, Mean ± standard deviation ([2]; sample 10 μg/mL) [µM] | NO generation, Result 1 ([2]; sample 10 μg/mL) [µM] | NO generation, Result 2 ([2]; sample 10 μg/mL) [µM] | NO generation relative to negative control (%) ([2]; sample 20 μg/mL) | further results
1 | CC(C)=CCC[C@](C)(O[C@@H]1O[C@H](CO)[C@@H](O)[C@H](O)[C@H]1O)[C@H]1CC[C@]2(C)[C@@H]1[C@H](O)C[C@@H]1[C@@]3(C)CC[C@H](O)C(C)(C)[C@@H]3[C@@H](O[C@@H]3O[C@H](CO)[C@@H](O)[C@H](O)[C@H]3O)C[C@]12C [Rg1] | 100 | 38.60 ± 2.69 | 36.7 | 40.5 | 34.55 ± 2.90 | 36.6 | 32.5 | 95 | 1 | 133.50 ± 7.78 | 128 | 139 | 141.50 ± 9.19 | 135 | 148 | 101.2 | 16.83 ± 0.63 | 16.38 | 17.27 | 99.3 | NO generation, Mean ± standard deviation ([2]; sample 20 μg/mL): 16.50 ± 1.06 µM; NO generation, Result 1 ([2]; sample 20 μg/mL): 15.75 µM; NO generation, Result 2 ([2]; sample 20 μg/mL): 17.25 µM
2 | CC(C)=CCC[C@](C)(O)[C@H]1CC[C@]2(C)[C@@H]1[C@H](O)C[C@@H]1[C@@]3(C)CC[C@H](O)C(C)(C)[C@@H]3[C@@H](O[C@@H]3O[C@H](CO)[C@@H](O)[C@H](O)[C@H]3O[C@@H]3O[C@@H](C)[C@H](O)[C@@H](O)[C@H]3O)C[C@]12C [Rg2] | 105 | 35.05 ± 2.47 | 33.3 | 36.8 | 31.60 ± 1.98 | 30.2 | 33 | 97 | 0 | 131.50 ± 3.54 | 129 | 134 | 125.00 ± 8.49 | 131 | 119 | 100.3 | 16.68 ± 0.45 | 17.00 | 16.36 | 97.4 | NO generation, Mean ± standard deviation ([2]; sample 20 μg/mL): 16.19 ± 0.01 µM; NO generation, Result 1 ([2]; sample 20 μg/mL): 16.18 µM; NO generation, Result 2 ([2]; sample 20 μg/mL): 16.19 µM
3 | CC(C)=CCC[C@](C)(O)[C@H]1CC[C@]2(C)[C@@H]1[C@H](O)C[C@@H]1[C@@]3(C)CC[C@H](O)C(C)(C)[C@@H]3[C@@H](O[C@@H]3O[C@H](CO)[C@@H](O)[C@H](O)[C@H]3O)C[C@]12C [Rh1] | 100 | 32.55 ± 5.16 | 28.9 | 36.2 | 32.15 ± 3.32 | 29.8 | 34.5 | 99 | 2 | 121.50 ± 7.78 | 116 | 127 | 112.75 ± 6.72 | 108 | 117.5 | 89.4 | 14.86 ± 0.07 | 14.92 | 14.81 | 75.1 | NO generation, Mean ± standard deviation ([2]; sample 20 μg/mL): 12.48 ± 0.26 µM; NO generation, Result 1 ([2]; sample 20 μg/mL): 12.29 µM; NO generation, Result 2 ([2]; sample 20 μg/mL): 12.66 µM

From patent US10086028B2, “Method for treating vascular inflammation, improving skin beauty and improving male sexual function using ginseng berry” (AMOREPACIFIC CORPORATION, priority 2007, dated 2018)
